Assay results taken from the NIST ThermoML archive (doi:10.1021/je060142u).
Numbers after ± are expanded uncertainties.

Experiment: activity coefficient (dimensionless); of the first substance listed, at infinite dilution; xn = mol fraction of the nth substance listed
Details: 101 kPa, Liquid, Chromatography, x1 = 0

Row | SMILES | activity coefficient (303.15 K) | activity coefficient (313.15 K) | activity coefficient (323.15 K) | activity coefficient (333.15 K) | activity coefficient (343.15 K)
1 | C1CCCCC1 [cyclohexane] + CCCCn1cc[n+](C)c1.F[B-](F)(F)F | 32.4 ± 2.8 | 30.2 ± 2.6 | 28.3 ± 2.5 | 26.9 ± 2.3 | 24.6 ± 2.1
2 | Cc1ccccc1C [1,2-dimethylbenzene] + CCCCn1cc[n+](C)c1.F[B-](F)(F)F | 4.2 ± 0.36 | 4.18 ± 0.36 | 4.16 ± 0.36 | 4.16 ± 0.36 | 4.14 ± 0.36
3 | Cc1cccc(C)c1 [1,3-dimethylbenzene] + CCCCn1cc[n+](C)c1.F[B-](F)(F)F | 5.25 ± 0.45 | 5.24 ± 0.45 | 5.23 ± 0.45 | 5.23 ± 0.45 | 5.22 ± 0.45
4 | C1=CCCCC1 [cyclohexene] + CCCCn1cc[n+](C)c1.F[B-](F)(F)F | 14.1 ± 1.2 | 13.5 ± 1.2 | 12.9 ± 1.1 | 12.4 ± 1.1 | 11.9 ± 1
5 | c1ccccc1 [benzene] + CCCCn1cc[n+](C)c1.F[B-](F)(F)F | 1.74 ± 0.15 | 1.76 ± 0.15 | 1.77 ± 0.15 | 1.8 ± 0.15 | 1.83 ± 0.16
6 | Cc1ccccc1 [toluene] + CCCCn1cc[n+](C)c1.F[B-](F)(F)F | 2.91 ± 0.25 | 2.94 ± 0.25 | 2.95 ± 0.25 | 2.99 ± 0.26 | 3.03 ± 0.26
7 | C=Cc1ccccc1 [styrene] + CCCCn1cc[n+](C)c1.F[B-](F)(F)F | 2.29 ± 0.2 | 2.29 ± 0.2 | 2.34 ± 0.2 | 2.41 ± 0.21 | 2.48 ± 0.21
8 | Cc1ccc(C)cc1 [1,4-dimethylbenzene] + CCCCn1cc[n+](C)c1.F[B-](F)(F)F | 4.97 ± 0.43 | 5.15 ± 0.44 | 5.28 ± 0.46 | 5.33 ± 0.46 | 5.47 ± 0.47

Now from value to compound:

Row | activity coefficient (303.15 K) | activity coefficient (313.15 K) | activity coefficient (323.15 K) | activity coefficient (333.15 K) | activity coefficient (343.15 K) | SMILES
9 | 48.7 ± 4.2 | 45.6 ± 3.9 | 42.4 ± 3.7 | 39.8 ± 3.5 | 37.3 ± 3.2 | CC1CCCCC1 [methylcyclohexane] + CCCCn1cc[n+](C)c1.F[B-](F)(F)F
10 | 92.5 ± 8 | 86.7 ± 7.5 | 81.7 ± 7.1 | 78.9 ± 6.8 | 71.5 ± 6.2 | CCCCCCC [heptane] + CCCCn1cc[n+](C)c1.F[B-](F)(F)F
11 | 414 ± 36 | 335 ± 29 | 320 ± 28 | 296 ± 26 | 279 ± 24 | CCCCCCCCCC [decane] + CCCCn1cc[n+](C)c1.F[B-](F)(F)F
12 | 60.8 ± 5.3 | 57.5 ± 5 | 54.2 ± 4.7 | 50.5 ± 4.4 | 47 ± 4.1 | CCCCCC [hexane] + CCCCn1cc[n+](C)c1.F[B-](F)(F)F
13 | 139 ± 12 | 136 ± 12 | 127 ± 11 | 119 ± 10 | 111 ± 9.6 | CCCCCCCC [octane] + CCCCn1cc[n+](C)c1.F[B-](F)(F)F
14 | 224 ± 20 | 193 ± 17 | 187 ± 16 | 179 ± 16 | 170 ± 15 | CCCCCCCCC [nonane] + CCCCn1cc[n+](C)c1.F[B-](F)(F)F
15 | 92.7 ± 8 | 88.6 ± 7.7 | 83.8 ± 7.3 | 79.5 ± 6.9 | 75.5 ± 6.5 | CC(C)CC(C)(C)C [2,2,4-trimethylpentane] + CCCCn1cc[n+](C)c1.F[B-](F)(F)F
16 | 40.7 ± 3.5 | 39.7 ± 3.4 | 38.1 ± 3.3 | 36.3 ± 3.1 | 35.8 ± 3.1 | CCCCC [pentane] + CCCCn1cc[n+](C)c1.F[B-](F)(F)F
17 | 5.61 ± 0.48 | 5.54 ± 0.48 | 5.49 ± 0.47 | 5.42 ± 0.47 | 5.37 ± 0.46 | CCc1ccccc1 [ethylbenzene] + CCCCn1cc[n+](C)c1.F[B-](F)(F)F
